Source: patent US20160340656A1, “PEPTIDES DERIVED FROM GSE 24.2 FOR TREATING DISEASES CAUSED BY OXIDATIVE STRESS AND DAMAGE TO DNA” (CONSEJO SUPERIOR DE INVESTIGACIONES CIENTÍFICAS (CSIC), priority 2013, published 2016)

Legend:
[1] = test system: AT2078 cells of patients with ataxia telangiectasia; assay: Damage to DNA in AT2078 cells: histone H2AX Ser139 foci after expression of GSE4 or SGSE4; assay type: cell-based, human
Protocol: FIG. 14. Determination of damage to DNA in AT cells after transfecting peptides GSE4 and SGSE4: AT2078 AT cells were infected with a lentiviral vector expressing GSE4, SGSE4 or a GFP empty vector and 24 hours later were fixed for processing and hybridised with an antibody against phosphorylated histone H2AX (Ser139). Control C-1787 cells were used as the negative control. Next they were hybridised with a fluorescein-labelled antibody and were stained with DAPI to locate the nuclei.
As the peptide denominated GSE4 was the smallest sized of the peptides with ability to inhibit damage to DNA, we studied if another peptide with a similar sequence localised in the sequence of peptide GSE24.2 had the same activity or if that activity was specific to GSE4. Peptide SGSE4 (SEQ ID No. 15) is similar to GSE4 in sequence (amino acids LDPK/LDKP that constitute consensus sequences for pseudouridine synthases) and size and is found in the TRUBII domain of dyskerin. Cell lines AT2078 of patients with ataxia telangiectasia were used for this test. Cell line C-1787 was used as the control cell line. The cells were infected with the bicistronic lentiviral vector pCMV-GFP-GSE4, SGSE4 or GFP. After 48 hours of infection the cells were fixed with formaldehyde and then permeabilized by treating them with Triton X-100. The damage to DNA was estimated by studying the signal after hybridisation of the cells with an antibody against histone H2AX Ser139 and subsequent hybridisation with an antibody bound to fluorescein. The number of foci with stain for histone H2AX per nucleus was determined by confocal microscopy in a total of 200 cells and the data represented as a percentage of cells with a specific number of foci.

HeLa cells = assay: Internalisation of fluorescein-labelled peptides, confocal fluorescence microscopy; assay type: cell-based
Protocol: (§1) FIG. 21. Transfection of peptides GSE4 and GSE4NLS1 in HeLa cells. Peptides GSE4 and GSE4NLS1 (SEQ ID No. 7) labelled with fluorescein and obtained by chemical synthesis were transfected into HeLa cells using the Proteojuice reagent and viewed in a confocal fluorescence microscope at 9, 24 and 48 hours after transfection.
as §1, with “22. Internalisation” for “21. Transfection”, “added to the culture medium of” for “transfected into”, “cells” for “cells using the Proteojuice reagent”
Given the ability of sequence NLS1 to contribute to the activity of GSE24.2, a synthetic peptide into which this sequence was placed in the 3′ region of peptide GSE4 was constructed as this was the peptide for which the greatest telomerase activation was obtained. The peptides obtained by chemical synthesis were labelled with fluorescein to facilitate their visualisation in a fluorescence microscope. Two experiments were performed in parallel, in one the peptides were transfected using Proteojuice reagent and in the other they were added directly to the culture medium. […] An important difference observed was that when the peptides were added directly to the culture medium, the peptide entered into a higher number of cells than when Proteojuice was used. The reagent provided greater effectiveness for internalisation but into a small number of cells.

[2] = test system: AT3487 cells from patients with ataxia telangiectasia; assay: Damage to DNA in AT cells: phosphorylated histone H2AX (Ser139) foci after lentiviral expression of GSE24.2; assay type: cell-based, human
Protocol: FIG. 1. Determination of damage to DNA in AT cells: AT3784 AT cells were infected with a lentiviral vector expressing GSE24.2 or a GFP empty vector and were fixed 24 hours later to be processed and hybridised with an antibody against phosphorylated histone H2AX (Ser139). Control C-1787 cells were used as the negative control. Next they were hybridised with a fluorescein-labelled antibody and were stained with DAPI to locate the nuclei.
To perform this test, cell lines from patients with ataxia telangiectasia (AT, from the Coriell repository) with a mutation in the gene ATM and denominated AT3487 were used. Cell line C-1787 was used as the control cell line. The cells were infected with the bicistronic lentiviral vector pCMV-GFP-GSE24.2. After 48 hours of infection the cells were fixed with formaldehyde and then permeabilized by treating them with Triton X-100. The damage to DNA was estimated by studying the signal after hybridisation of the cells with an antibody against histone H2AX Ser139 and subsequent hybridisation with an antibody bound to fluorescein. The number of foci with stain for histone H2AX/nucleus was determined by confocal microscopy in a total of 200 cells and the data represented as a percentage of cells with a specific number of foci.

AT3189-P AT lymphoblasts = assay: ROS levels by DHE and flow cytometry in AT lymphoblasts; assay type: cell-based, human; settings: AT3189-P cells, three weeks after infection, DHE, versus AT736C control cells
Protocol: FIG. 3. Determination of ROS levels in AT cells: AT3189-P AT cells were infected with a lentiviral vector expressing GSE24.2 or a GFP empty vector and three weeks later were loaded with the DHE reagent that detects Reactive Oxygen Species (ROS) levels. AT736C cells were used as a control. Relative fluorescence of the three cell lines and the proportion of cells with maximum intensity were determined through flow cytometry using wavelengths of 518 nm absorption and 605 nm emission. The data are shown as relative percentage of cells that emit at this wavelength.
One of the characteristics of AT cells is an increase in free radical content. This is due to the failure of function of protein ATM, which is able to maintain the redox balance in normal cells when the cells are exposed to environmental stress such as in vitro culture. In order to verify if expression of GSE24.2 has some impact on the regulation of free radical levels, we used the compound dihydroethidium (Hydroethidine), which enables quantifying the levels of free radicals in living cells. […] Three weeks after infection, the cells were loaded with the DHE reagent for 30 minutes and the proportion of cells with different free radical content was determined by flow cytometry.

[3] = 200 cells, lentiviral expression of GSE24.2

Row | Sequence | overall correction of damage to DNA [1] [%] | AT cells in which overall damage to DNA is corrected ([1]; 200 cells) [%] | entry into cells (HeLa cells; peptide simply added to the culture medium) | entry into cells (HeLa cells; transfected using Proteojuice reagent) | correction of overall damage to DNA [2] [%] | AT cells in which levels of damage to DNA are reduced [2, 3] [%] | AT cells in which overall damage to DNA is fully corrected [2, 3] [%] | ROS levels (AT3189-P AT lymphoblasts)
1 | GFINLDKPSNP [GSE4] | 60 | 38 | entered the cells | entered the cells | – | – | – | –
2 | GFINLDKPSNPSSHEVVAWIRRILRVEKTGHSGTLDPKVTGCLIVCIERATRLVK (GSE24.2; listed as Homo sapiens) [55-amino-acid peptide corresponding to the protein dyskerin; known from WO2007/090911] | – | – | – | – | 40 | 25 | 20 | reduced in AT3189-P GSE24.2 cells to values comparable to those found in the AT736C control cells
